Counter-ions that a name gives are not always drawn.
Test system: BRCA-1 silenced HeLa cells (HeLa shBRCA1-GFP)
Assay: Proliferation assay in BRCA-1 silenced HeLa cells
Assay type: cell-based
Conditions: Homo sapiens; BRCA1 silenced HeLa cells, 168 hours; read-out: CC50 in the BRCA1 silenced HeLa cells
Method in brief: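 Antiproliferative effect was read by Celltiter Blue fluorescence after 168 h of compound treatment at 37° C., 5% CO2. Cells were matched HeLa pairs, BRCA1-shRNA (>80% silenced, GFP) versus non-shRNA vector control, in DMEM with 10% FCS.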

| Structure (SMILES) | CC50 [nM] |
| --- | --- |
| Cc1c(Cc2ccc(F)c(C(=O)N3CC(=O)N4CCCC[C@H]4C3)c2)n[nH]c(=O)c1C [Example 89, (9aS)-2-{5-[(4,5-Dimethyl-6-oxo-1,6-dihydropyridazin-3-yl)methyl]-2-fluorobenzoyl}octahydro-4H-pyrido[1,2-a]pyrazin-4-one trifluoroacetate] | < 5000 |
| Cc1c(Cc2ccc(F)c(C(=O)N3CC(=O)N(c4cccs4)[C@H](C)C3)c2)n[nH]c(=O)c1C [Example 195, 6-(4-Fluoro-3-{[(3R)-3-methyl-5-oxo-4-(2-thienyl)piperazin-1-yl]carbonyl}benzyl)-4,5-dimethylpyridazin-3(2H)-one] | < 50 |
| Cc1c(Cc2ccc(F)c(C(=O)N3CC(=O)N(c4cccc(Cl)c4)C(C)C3)c2)n[nH]c(=O)c1C (stereo not drawn) [Example 165, 6-(3-{[4-(3-Chlorophenyl)-3-methyl-5-oxopiperazin-1-yl]carbonyl}-4-fluorobenzyl)-4,5-dimethylpyridazin-3(2H)-one] | < 50 |
| Cc1c(Cc2ccc(F)c(C(=O)N3CCN([C@@H]4C[C@H]5CC[C@@H]4C5)C(=O)C3)c2)n[nH]c(=O)c1C [Example 101, 6-[3-({4-[(1R,2R,4S)-Bicyclo[2.2.1]hept-2-yl]-3-oxopiperazin-1-yl}carbonyl)-4-fluorobenzyl]-4,5-dimethyl-3-oxo-2,3-dihydropyridazin-1-ium trifluoroacetate] | < 50 |
| Cc1c(Cc2ccc(F)c(C(=O)N3CCN(C4CCc5ccccc54)C(=O)C3)c2)n[nH]c(=O)c1C (stereo not drawn) [Example 100, 6-(3-{[4-(2,3-dihydro-1H-inden-1-yl)-3-oxopiperazin-1-yl]carbonyl}-4-fluorobenzyl)-4,5-dimethyl-3-oxo-2,3-dihydropyridazin-1-ium trifluoroacetate] | < 50 |
| C[C@H]1CCC[C@H]2CN(C(=O)c3cc(Cc4cc(C(F)(F)F)c(=O)[nH]n4)ccc3F)CC(=O)N21 (single isomer, unassigned) [88 (VV1)] | < 50 |
| Cc1c(Cc2ccc(F)c(C(=O)N3CCN(C4CCCC4)C(=O)C3)c2)n[nH]c(=O)c1C [Example 3, 6-{3-[(4-Cyclopentyl-3-oxopiperazin-1-yl)carbonyl]-4-fluorobenzyl}-4,5-dimethylpyridazin-3(2H)-one] | < 50 |
| Cc1c(Cc2ccc(F)c(C(=O)N3CCN(CCc4ccccc4)C(=O)C3)c2)n[nH]c(=O)c1C [Example 21, 6-(4-Fluoro-3-{[3-oxo-4-(2-phenylethyl)piperazin-1-yl]carbonyl}benzyl)-4,5-dimethylpyridazin-3(2H)-one trifluoroacetate] | 50 to 500 |
| Cc1c(Cc2ccc(F)c(C(=O)N3CC(=O)N(C4COc5ccccc5C4)C(C)C3)c2)n[nH]c(=O)c1C (stereo not drawn) [Example 132, 6-(3-{[4-(3,4-Dihydro-2H-chromen-3-yl)-3-methyl-5-oxopiperazin-1-yl]carbonyl}-4-fluorobenzyl)-4,5-dimethylpyridazin-3(2H)-one trifluoroacetate] | < 50 |
| Cc1c(Cc2ccc(F)c(C(=O)N3CC(=O)N(C4CC(F)(F)C4)[C@@H](C)C3)c2)n[nH]c(=O)c1C [Example 209, 6-(3-{[(3S)-4-(3,3-Difluorocyclobutyl)-3-methyl-5-oxopiperazin-1-yl]carbonyl}-4-fluorobenzyl)-4,5-dimethylpyridazin-3(2H)-one] | < 50 |
| Cc1c(Cc2ccc(F)c(C(=O)N3CCN(C4CCOC4)C(=O)C3)c2)n[nH]c(=O)c1C (stereo not drawn) [Example 69, 6-(4-Fluoro-3-{[3-oxo-4-(tetrahydrofuran-3-yl)piperazin-1-yl]carbonyl}benzyl)-4,5-dimethyl-3-oxo-2,3-dihydropyridazin-1-ium trifluoroacetate] | 50 to 500 |
| COC[C@@H](C)N1CCN(C(=O)c2cc(Cc3n[nH]c(=O)c(C)c3C)ccc2F)CC1=O [Example 179, 6-[4-Fluoro-3-({4-[(1R)-2-methoxy-1-methylethyl]-3-oxopiperazin-1-yl}carbonyl)benzyl]-4,5-dimethylpyridazin-3(2H)-one] | < 5000 |
| CCC1CN(C(=O)c2cc(Cc3n[nH]c(=O)c(C)c3C)ccc2F)CC(=O)N1C1CCCC1 (stereo not drawn) [Example 186, 6-{3-[(4-Cyclopentyl-3-ethyl-5-oxopiperazin-1-yl)carbonyl]-4-fluorobenzyl}-4,5-dimethylpyridazin-3(2H)-one] | < 5000 |
| CCc1c(Cc2ccc(F)c(C(=O)N3CCN(C4CCCCC4)C(=O)C3)c2)n[nH]c(=O)c1C [Example 28, 3-{3-[(4-Cyclohexyl-3-oxopiperazin-1-yl)carbonyl]-4-fluorobenzyl}-4-ethyl-5-methyl-6-oxo-1,6-dihydropyridazin-1-ium trifluoroacetate] | 50 to 500 |
| Cc1c(Cc2ccc(F)c(C(=O)N3CCN(c4ccccc4)C(=O)C3)c2)n[nH]c(=O)c1C [Example 1, 6-{4-Fluoro-3-[(3-oxo-4-phenylpiperazin-1-yl)carbonyl]benzyl}-4,5-dimethyl-3-oxo-2,3-dihydropyridazin-1-ium trifluoroacetate] | < 50 |
| Cc1c(Cc2ccc(F)c(C(=O)N3CCN(c4ccc(F)cc4Cl)C(=O)C3)c2)n[nH]c(=O)c1C [Example 16, 6-(3-{[4-(2-Chloro-4-fluorophenyl)-3-oxopiperazin-1-yl]carbonyl}-4-fluorobenzyl)-4,5-dimethyl-3-oxo-2,3-dihydropyridazin-1-ium trifluoroacetate] | 50 to 500 |
| CC[C@@H](C)N1CCN(C(=O)c2cc(Cc3n[nH]c(=O)c(C)c3C)ccc2F)CC1=O [Example 168, 6-[4-Fluoro-3-({4-[(1R)-1-methylpropyl]-3-oxopiperazin-1-yl}carbonyl)benzyl]-4,5-dimethylpyridazin-3(2H)-one] | < 50 |
| Cc1c(Cc2ccc(F)c(C(=O)N3CCN(c4cncc(C(F)(F)F)c4)C(=O)C3)c2)n[nH]c(=O)c1C [Example 65, 3-[4-Fluoro-3-({3-oxo-4-[5-(trifluoromethyl)pyridin-3-yl]piperazin-1-yl}carbonyl)benzyl]-4,5-dimethyl-6-oxo-1,6-dihydropyridazin-1-ium trifluoroacetate] | 50 to 500 |
| Cc1c(Cc2ccc(F)c(C(=O)N3CCN(C4CCCC(c5ccccc5)C4)C(=O)C3)c2)n[nH]c(=O)c1C (stereo not drawn) [Example 66, 6-(4-Fluoro-3-{[3-oxo-4-(3-phenylcyclohexyl)piperazin-1-yl]carbonyl}benzyl)-4,5-dimethyl-3-oxo-2,3-dihydropyridazin-1-ium trifluoroacetate] | 50 to 500 |
| CCC1CN(C(=O)c2cc(Cc3n[nH]c(=O)c(C)c3C)ccc2F)CC(=O)N1C1CCC1 (stereo not drawn) [Example 164, 6-{3-[(4-Cyclobutyl-3-ethyl-5-oxopiperazin-1-yl)carbonyl]-4-fluorobenzyl}-4,5-dimethylpyridazin-3(2H)-one] | 50 to 500 |
| O=C(c1cc(Cc2cc(C(F)(F)F)c(=O)[nH]n2)ccc1F)N1CCN([C@H]2CCCOC2)C(=O)C1 [Example 153, 6-[4-fluoro-3-({3-oxo-4-[(3S)-tetrahydro-2H-pyran-3-yl]piperazin-1-yl}carbonyl)benzyl]-4-(trifluoromethyl)pyridazin-3(2H)-one] | 50 to 500 |
| Cc1c(Cc2ccc(F)c(C(=O)N3CC(=O)N([C@H]4CCOC4)[C@@H](C)C3)c2)n[nH]c(=O)c1C (single isomer, unassigned) [75 (II4B)] | < 50 |
| Cc1c(Cc2ccc(F)c(C(=O)N3CC(=O)N(c4ccc(C#N)cc4)[C@@H](C)C3)c2)n[nH]c(=O)c1C [Example 166, 4-((2S)-4-{5-[(4,5-Dimethyl-6-oxo-1,6-dihydropyridazin-3-yl)methyl]-2-fluorobenzoyl}-2-methyl-6-oxopiperazin-1-yl)benzonitrile] | < 50 |
| Cc1c(Cc2ccc(F)c(C(=O)N3CCN(c4ccccc4C(F)(F)F)C(=O)C3)c2)n[nH]c(=O)c1C [Example 15, 6-[4-Fluoro-3-({3-oxo-4-[2-(trifluoromethyl)phenyl]piperazin-1-yl}carbonyl)benzyl]-4,5-dimethyl-3-oxo-2,3-dihydropyridazin-1-ium trifluoroacetate] | < 50 |
| Cc1c(Cc2ccc(F)c(C(=O)N3CC(=O)N(c4ccc(F)c(F)c4)[C@H](C)C3)c2)n[nH]c(=O)c1C [Example 203, 6-(3-{[(3R)-4-(3,4-Difluorophenyl)-3-methyl-5-oxopiperazin-1-yl]carbonyl}-4-fluorobenzyl)-4,5-dimethylpyridazin-3(2H)-one] | < 50 |
| Cc1c(Cc2ccc(F)c(C(=O)N3CCN(c4ccc(F)c(F)c4)C(=O)C3)c2)n[nH]c(=O)c1C(F)(F)F [Example 26, 3-(3-{[4-(3,4-Difluorophenyl)-3-oxopiperazin-1-yl]carbonyl}-4-fluorobenzyl)-4-methyl-6-oxo-5-(trifluoromethyl)-1,6-dihydropyridazin-1-ium trifluoroacetate] | < 50 |
| Cc1c(Cc2ccc(F)c(C(=O)N3CC(=O)N(c4ccc(C#N)cc4F)[C@H](C)C3)c2)n[nH]c(=O)c1C [Example 201, 4-((2R)-4-{5-[(4,5-Dimethyl-6-oxo-1,6-dihydropyridazin-3-yl)methyl]-2-fluorobenzoyl}-2-methyl-6-oxopiperazin-1-yl)-3-fluorobenzonitrile] | < 50 |
| Cc1c(Cc2cc(C(=O)N3CCN(C4CCCC4)C(=O)C3)c(F)cc2Br)n[nH]c(=O)c1C [Example 83, 6-{2-Bromo-5-[(4-cyclopentyl-3-oxopiperazin-1-yl)carbonyl]-4-fluorobenzyl}-4,5-dimethylpyridazin-3(2H)-one] | < 50 |
| Cc1c(Cc2ccc(F)c(C(=O)N3CC(=O)N(c4cc(F)cc(F)c4)[C@H](C)C3)c2)n[nH]c(=O)c1C [Example 193, 6-(3-{[(3R)-4-(3,5-Difluorophenyl)-3-methyl-5-oxopiperazin-1-yl]carbonyl}-4-fluorobenzyl)-4,5-dimethylpyridazin-3(2H)-one] | < 50 |
| CC[C@H](C)N1CCN(C(=O)c2cc(Cc3n[nH]c(=O)c(C)c3C)ccc2F)CC1=O [Example 161, 6-[4-Fluoro-3-({4-[(1S)-1-methylpropyl]-3-oxopiperazin-1-yl}carbonyl)benzyl]-4,5-dimethylpyridazin-3(2H)-one] | < 50 |
